Results published in publication PMC4281022 (Journal of medicinal chemistry, 2013).
“Also recorded” adds a separate entry of the source. Blank lines part the entries; values can stand above or below the compound they belong to.

Columns and labels:
CB1 receptor = CB1 receptor (Mus musculus, UniProt P47746); test: Tetrad test: attenuation of central effects of Δ^9-THC; assay type: in vivo; conditions: 10 mg/kg oral, ICR mice
human CB1 [1] = target: T1, human CB1 (Homo sapiens, UniProt P21554); test: [3H]CP55940 radioligand displacement at CB1, membranes of CHO-K1 cells; assay type: binding; conditions: ratio of Ki values
T1 sequence (P21554 whole entry): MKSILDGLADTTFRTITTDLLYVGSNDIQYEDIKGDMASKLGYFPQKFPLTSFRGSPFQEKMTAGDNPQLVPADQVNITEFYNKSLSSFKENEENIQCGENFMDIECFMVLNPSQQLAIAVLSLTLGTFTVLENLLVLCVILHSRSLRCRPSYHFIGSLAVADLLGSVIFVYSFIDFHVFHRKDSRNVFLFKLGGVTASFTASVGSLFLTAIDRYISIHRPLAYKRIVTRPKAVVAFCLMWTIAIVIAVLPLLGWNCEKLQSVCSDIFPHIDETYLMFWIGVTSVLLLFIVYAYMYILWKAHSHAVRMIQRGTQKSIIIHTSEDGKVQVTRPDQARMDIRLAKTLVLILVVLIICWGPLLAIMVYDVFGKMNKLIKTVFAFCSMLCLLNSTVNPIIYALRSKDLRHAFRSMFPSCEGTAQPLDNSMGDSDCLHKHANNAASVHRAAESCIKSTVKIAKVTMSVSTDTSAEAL

human CB1 [2] = target: T1, human CB1; test: CB1 calcium mobilization assay, antagonist apparent affinity; assay type: cell-based

Chain of CB1 receptor (P47746 whole entry): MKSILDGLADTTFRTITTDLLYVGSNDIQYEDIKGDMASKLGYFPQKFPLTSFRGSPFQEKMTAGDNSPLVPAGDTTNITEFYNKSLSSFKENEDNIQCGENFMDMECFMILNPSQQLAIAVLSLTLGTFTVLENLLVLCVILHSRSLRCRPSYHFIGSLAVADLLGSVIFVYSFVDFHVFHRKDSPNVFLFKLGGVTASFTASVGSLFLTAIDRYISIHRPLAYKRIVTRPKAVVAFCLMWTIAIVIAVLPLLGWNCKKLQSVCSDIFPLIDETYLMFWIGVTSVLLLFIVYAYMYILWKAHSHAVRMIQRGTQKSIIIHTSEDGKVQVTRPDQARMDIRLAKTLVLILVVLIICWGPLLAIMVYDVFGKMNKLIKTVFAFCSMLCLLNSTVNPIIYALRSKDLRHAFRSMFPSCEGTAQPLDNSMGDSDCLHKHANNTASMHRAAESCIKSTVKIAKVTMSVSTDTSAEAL

Effects in tetrad tests by itself (CB1 receptor; in combination with vehicle): did not produce any significant effects | Selectivity for CB1 over CB2 (human CB1 [1]): > 50 fold
Compound: CCCCC(=O)NC1CCN(c2ncnc3c2nc(-c2ccccc2Cl)n3-c2ccc(Cl)cc2)CC1 [Compound 9, N-{1-[8-(2-Chlorophenyl)-9-(4-chlorophenyl)-9H-purin-6-yl]piperidin-4-yl}pentanamide]
Reversal of the cannabimimetic effects of Δ^9-THC (tetrad) (CB1 receptor; 30 min before 30 mg/kg i.v. Δ^9-THC): without efficacy; also recorded: did not reverse any of the cannabimimetic effects of Δ^9-THC; also recorded: could not be reversed

Activity in the calcium mobilization assay (human CB1 [2]): very active
Compound: O=S(=O)(NC1CCN(c2ncnc3c2nc(-c2ccccc2Cl)n3-c2ccc(Cl)cc2)CC1)C(F)(F)F [Compound 18, N-{1-[8-(2-chlorophenyl)-9-(4-chlorophenyl)-9H-purin-6-yl]piperidin-4-yl,}-1,1,1-trifluoromethanesulfonamide]

Kb (human CB1 [2]): 789 nM
Compound: O=C(CCN1CCCCC1)NC1CCN(c2ncnc3c2nc(-c2ccccc2Cl)n3-c2ccc(Cl)cc2)CC1 [Compound 15, N-{1-[8-(2-Chlorophenyl)-9-(4-chlorophenyl)-9H-purin-6-yl]piperidin-4-yl}-3-(piperidin-1-yl)propanamide]

Compound: N-{1-[8-(2-chlorophenyl)-9-(4-chlorophenyl)-9H-purin-6-yl]piperidin-4-yl}aminosulfonamide [Compound 17]
Activity in the calcium mobilization assay (human CB1 [2]): did not have significant activity
